Test results published in US20260262643A1, “HERBICIDAL BENZOXAZINES” (FMC CORPORATION, priority 2022, published 2026).

What was measured:
corn [1] = experiment: Test A preemergence; format: in vivo, Zea mays
Method in brief: (§1)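 Plants were grown in loam and sand and treated preemergence or postemergence (one- to two-leaf stage, 2–10 cm) with compound in solvent plus surfactant. Response was scored against untreated controls after 10 greenhouse days, where 0 means no effect and 100 complete control.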

rice = experiment: Test B flooded paddy test; format: in vivo, Oryza sativa; details: 250 g ai/ha, Flood, 13 days, 0 to 100 scale (0 no effect, 100 complete control)
Method in brief: (§2)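 Species grown to 2-leaf stage; pots flooded 3 cm above soil and compound applied directly to paddy water, depth maintained throughout. After 13 days in greenhouse, plants visually rated against controls on 0–100 scale (0 no effect, 100 complete control); dash means no result.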

wheat [2] = experiment: Test A postemergence; format: in vivo, Triticum aestivum
Method in brief: as §1

corn [3] = experiment: Test A postemergence; format: in vivo, Zea mays
Method in brief: as §1

goosegrass [4] = experiment: Test A postemergence; format: in vivo, Eleusine indica
Method in brief: as §1

kochia [5] = experiment: Test A preemergence; format: in vivo, Bassia scoparia
Method in brief: as §1

wheat [6] = experiment: Test A preemergence; format: in vivo, Triticum aestivum
Method in brief: as §1

kochia [7] = experiment: Test A postemergence; format: in vivo, Bassia scoparia
Method in brief: as §1

sedge, umbrella = experiment: Test B flooded paddy test; format: in vivo, Cyperus difformis; details: 250 g ai/ha, Flood, 13 days, 0 to 100 scale (0 no effect, 100 complete control)
Method in brief: as §2

ducksalad = experiment: Test B flooded paddy test; format: in vivo, Heteranthera limosa; details: 250 g ai/ha, Flood, 13 days, 0 to 100 scale (0 no effect, 100 complete control)
Method in brief: as §2

oat, wild [8] = experiment: Test A postemergence; format: in vivo, Avena fatua
Method in brief: as §1

soybean [9] = experiment: Test A preemergence; format: in vivo, Glycine max
Method in brief: as §1

oat, wild [10] = experiment: Test A preemergence; format: in vivo, Avena fatua
Method in brief: as §1

ryegrass, Italian [11] = experiment: Test A postemergence; format: in vivo, Lolium multiflorum
Method in brief: as §1

ragweed [12] = experiment: Test A preemergence; format: in vivo, Ambrosia artemisiifolia
Method in brief: as §1

pigweed, palmer [13] = experiment: Test A postemergence; format: in vivo, Amaranthus palmeri
Method in brief: as §1

barnyardgrass = experiment: Test B flooded paddy test; format: in vivo, Echinochloa crus-galli; details: 250 g ai/ha, Flood, 13 days, 0 to 100 scale (0 no effect, 100 complete control)
Method in brief: as §2

ryegrass, Italian [14] = experiment: Test A preemergence; format: in vivo, Lolium multiflorum
Method in brief: as §1

pigweed, palmer [15] = experiment: Test A preemergence; format: in vivo, Amaranthus palmeri
Method in brief: as §1

foxtail, giant [16] = experiment: Test A preemergence; format: in vivo, Setaria faberi
Method in brief: as §1

foxtail, giant [17] = experiment: Test A postemergence; format: in vivo, Setaria faberi
Method in brief: as §1

goosegrass [18] = experiment: Test A preemergence; format: in vivo, Eleusine indica
Method in brief: as §1

ragweed [19] = experiment: Test A postemergence; format: in vivo, Ambrosia artemisiifolia
Method in brief: as §1

soybean [20] = experiment: Test A postemergence; format: in vivo, Glycine max
Method in brief: as §1

horseweed = experiment: Test A postemergence; format: in vivo, Erigeron canadensis; details: postemergence, 10 days
Method in brief: as §1

blackgrass [21] = experiment: Test A preemergence; format: in vivo, Alopecurus myosuroides
Method in brief: as §1

blackgrass [22] = experiment: Test A postemergence; format: in vivo, Alopecurus myosuroides
Method in brief: as §1

galium = experiment: Test A postemergence; format: in vivo, Galium aparine
Method in brief: as §1

[23] = 125 g ai/ha, visual injury after 10 days, 0 to 100 scale, 0 is no effect, 100 is complete control
[24] = 500 g ai/ha, 0 to 100 scale (0 no effect, 100 complete control), 10 days
[25] = 125 g ai/ha, postemergence, 10 days, 0 to 100 scale, 0 no effect, 100 complete control
[26] = 500 g ai/ha, postemergence, 10 days, visual injury, 0 to 100 scale (0 no effect, 100 complete control)
[27] = 125 g ai/ha, postemergence, 10 days, visual injury, 0 to 100 scale (0 no effect, 100 complete control)
[28] = 500 g ai/ha, Postemergence, 0 to 100 scale

COc1ccc(-n2cnc(C(C)(C)C)n2)cc1C(=O)N1C[C@H](C)Oc2c(Cl)cccc21 [Compound 83]
20: Plant response rating, Corn (corn [1]; [24]) | Oat, Wild plant response rating (oat, wild [8]; [25]) | Foxtail, Giant plant response rating (foxtail, giant [17]; [25])
70: Goosegrass plant response rating (goosegrass [4]; [25]) | Plant response rating, Oat, Wild (oat, wild [8]; [26]) | Ragweed plant response rating (ragweed [19]; [25])
0: Plant response rating, Corn (corn [1]; [23]) | Plant response rating, Rice (rice)
50: Plant response rating, Corn (corn [3]; [26]) | Plant response rating, Soybean (soybean [9]; [23]) | Plant response rating, Ragweed (ragweed [12]; [23]) | Plant response rating, Blackgrass (blackgrass [21]; [24])
60: Plant response rating, Blackgrass (blackgrass [22]; [26])
90: Plant response rating, Kochia (kochia [5]; [23]) | Plant response rating, Wheat (wheat [6]; [24]) | Plant response rating, Oat, Wild (oat, wild [10]; [23]) | Plant response rating, Oat, Wild (oat, wild [10]; [24]) | Plant response rating, Ragweed (ragweed [12]; [24]) | Plant response rating, Pigweed, Palmer (pigweed, palmer [13]; [26]) | Plant response rating, Foxtail, Giant (foxtail, giant [17]; [26])
30: Corn plant response rating (corn [3]; [25]) | Plant response rating, Ducksalad (ducksalad)
100: Plant response rating, Goosegrass (goosegrass [4]; [26]) | Plant response rating, Kochia (kochia [5]; [24]) | Kochia plant response rating (kochia [7]; [25]) | Plant response rating, Kochia (kochia [7]; [26]) | Plant response rating, Sedge, Umbrella (sedge, umbrella) | Plant response rating, Soybean (soybean [9]; [24]) | Plant response rating, Ryegrass, Italian (ryegrass, Italian [11]; [26]) | Pigweed, Palmer plant response rating (pigweed, palmer [13]; [25]) | Plant response rating, Ryegrass, Italian (ryegrass, Italian [14]; [23]) | Plant response rating, Ryegrass, Italian (ryegrass, Italian [14]; [24]) | Plant response rating, Pigweed, Palmer (pigweed, palmer [15]; [23]) | Plant response rating, Pigweed, Palmer (pigweed, palmer [15]; [24]) | Plant response rating, Foxtail, Giant (foxtail, giant [16]; [23]) | Plant response rating, Foxtail, Giant (foxtail, giant [16]; [24]) | Plant response rating, Goosegrass (goosegrass [18]; [23]) | Plant response rating, Goosegrass (goosegrass [18]; [24]) | Plant response rating, Ragweed (ragweed [19]; [26]) | Soybean plant response rating (soybean [20]; [25]) | Plant response rating, Soybean (soybean [20]; [26])
40: Plant response rating, Wheat (wheat [2]; [26]) | Ryegrass, Italian plant response rating (ryegrass, Italian [11]; [25]) | Plant response rating, Barnyardgrass (barnyardgrass) | Horseweed plant response rating (horseweed; 125 g ai/ha, 0 to 100 scale, 0 no effect, 100 complete control) | Plant response rating, Horseweed (horseweed; 500 g ai/ha, visual injury, 0 to 100 scale (0 no effect, 100 complete control)) | Plant response rating, Blackgrass (blackgrass [21]; [23])
10: Wheat plant response rating (wheat [2]; [25]) | Plant response rating, Wheat (wheat [6]; [23]) | Blackgrass plant response rating (blackgrass [22]; [25])

C[C@H]1CN(C(=O)c2cccc(-n3cncn3)c2)c2cccc(OC(F)(F)F)c2O1 [Compound 48]
30: Plant response rating, Corn (corn [1]; [24]) | Plant response rating, Wheat (wheat [2]; [28]) | Plant response rating, Kochia (kochia [5]; [24]) | Plant response rating, Oat, Wild (oat, wild [8]; [28]) | Plant response rating, Oat, Wild (oat, wild [10]; [24]) | Plant response rating, Pigweed, Palmer (pigweed, palmer [13]; [27]) | Plant response rating, Pigweed, Palmer (pigweed, palmer [15]; [23]) | Plant response rating, Blackgrass (blackgrass [22]; [28])
0: Plant response rating, Corn (corn [1]; [23]) | Plant response rating, Rice (rice) | Plant response rating, Goosegrass (goosegrass [4]; [27]) | Plant response rating, Kochia (kochia [5]; [23]) | Plant response rating, Wheat (wheat [6]; [23]) | Plant response rating, Wheat (wheat [6]; [24]) | Plant response rating, Sedge, Umbrella (sedge, umbrella) | Plant response rating, Ducksalad (ducksalad) | Plant response rating, Soybean (soybean [9]; [23]) | Plant response rating, Soybean (soybean [9]; [24]) | Plant response rating, Ragweed (ragweed [12]; [23]) | Plant response rating, Ragweed (ragweed [12]; [24]) | Plant response rating, Barnyardgrass (barnyardgrass) | Plant response rating, Ragweed (ragweed [19]; [27]) | Plant response rating, Blackgrass (blackgrass [22]; [27])
90: Plant response rating, Pigweed, Palmer (pigweed, palmer [15]; [24]) | Plant response rating, Foxtail, Giant (foxtail, giant [16]; [24])
50: Plant response rating, Kochia (kochia [7]; [28])
70: Plant response rating, Pigweed, Palmer (pigweed, palmer [13]; [28]) | Plant response rating, Ryegrass, Italian (ryegrass, Italian [14]; [23]) | Plant response rating, Foxtail, Giant (foxtail, giant [17]; [28]) | Plant response rating, Soybean (soybean [20]; [27])
10: Plant response rating, Wheat (wheat [2]; [27]) | Plant response rating, Corn (corn [3]; [27]) | Plant response rating, Oat, Wild (oat, wild [8]; [27])
100: Plant response rating, Ryegrass, Italian (ryegrass, Italian [14]; [24]) | Plant response rating, Soybean (soybean [20]; [28])
60: Plant response rating, Corn (corn [3]; [28]) | Plant response rating, Galium (galium; [28])
20: Plant response rating, Kochia (kochia [7]; [27]) | Plant response rating, Oat, Wild (oat, wild [10]; [23]) | Plant response rating, Ryegrass, Italian (ryegrass, Italian [11]; [27]) | Plant response rating, Foxtail, Giant (foxtail, giant [16]; [23]) | Plant response rating, Foxtail, Giant (foxtail, giant [17]; [27]) | Plant response rating, Ragweed (ragweed [19]; [28]) | Plant response rating, Blackgrass (blackgrass [21]; [23])
40: Plant response rating, Goosegrass (goosegrass [4]; [28]) | Plant response rating, Ryegrass, Italian (ryegrass, Italian [11]; [28]) | Plant response rating, Goosegrass (goosegrass [18]; [23]) | Plant response rating, Galium (galium; [27])
80: Plant response rating, Goosegrass (goosegrass [18]; [24]) | Plant response rating, Blackgrass (blackgrass [21]; [24])
